Measurements published in US20170253607A1, “LONG-ACTING HIV PROTEASE INHIBITOR” (Shionogi & Co., Ltd., priority 2014, published 2017).
pIC50: −log10 of the molar value.

What was measured:
[1] = Evaluation of total body clearance (CLtot), intravenous administration; format: in vivo, Sprague-Dawley (SD); settings: rat (SD), intravenous administration 0.5-10 mg/kg; CLtot = dose/AUC
Procedure: Dose: Intravenous administration with designated doses was selected. (Doses were changed depending on compounds.) • 0.5-10 mg/kg (n=2-3) Preparation of dosing formulation: The dosing solution was prepared by dissolving in an adequate solvent. Administration method: The dosing solution was injected into the tail vein by a syringe with a needle Blood sampling: The blood was collected at the scheduled time and obtained the plasma. Plasma concentrations of the compound were measured by LC/MS/MS. Statistical analysis: Area under the plasma concentration-time curve (AUC) of the compound was calculated by pharmacokinetic analysis software, WinNonlin™ and CLtot was calculated by dividing the dose by AUC.

HIV-1 PR = HIV-1 PR (Human immunodeficiency virus type 1 group M subtype B, UniProt P04585); experiment: HIV-protease inhibitory activity assay (FRET peptide substrate); format: biochemical; settings: Test Example 1
How it was run: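 Inhibition of HIV-1 protease was measured as loss of fluorescence dequenching of a HiLyte Fluor 488/QXL 520 peptide at 2 μmol/L, pH 4.8, room temperature, 60 minute reaction. IC50 was derived by nonlinear four-parameter fitting.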

COc1ccc(S(=O)(=O)N(CC(C)C)CC(O)C(Cc2ccc(N(C)Cc3occc3-c3sc4c(c3C(=O)O)CC(C)(C)CC4)cc2)NC(=O)OC2COC3(C)OCCC23)cc1 (stereo not drawn) [Compound I-492]
rat_CLt [1]: 17.3 mL/min/kg | pIC50 (HIV-1 PR): 8.74

COc1ccc(S(=O)(=O)N(CC(C)C)CC(O)C(Cc2ccc(NCc3cc(OC)c(OC)cc3C(=O)Nc3sc4c(c3C(=O)O)CC(C)(C)CC4)cc2)NC(=O)OC2COC3(C)OCCC23)cc1 (stereo not drawn) [Compound I-541]
rat_CLt [1]: 0.195 mL/min/kg | pIC50 (HIV-1 PR): 8.63

COc1ccc(S(=O)(=O)N(CC(C)C)CC(O)C(Cc2ccc(N(C)Cc3ccccc3-c3sc(N(C4CCCCC4)C4CCCCC4)nc3C(=O)O)cc2)NC(=O)OC2COC3(C)OCCC23)cc1 (stereo not drawn) [Compound I-471]
rat_CLt [1]: 2.17 mL/min/kg | pIC50 (HIV-1 PR): 8.33

COc1ccc(S(=O)(=O)N(CC(C)C)CC(O)C(Cc2ccc(NCc3cc(-c4sc5c(c4C(=O)O)CC(C)(C)CC5)ccc3C)cc2)NC(=O)OC2COC3(C)OCCC23)cc1 (stereo not drawn) [Compound I-550]
rat_CLt [1]: 5.29 mL/min/kg | pIC50 (HIV-1 PR): 8.76

COc1ccc(S(=O)(=O)N(CC(C)C)CC(O)C(Cc2ccc(N(C)Cc3cc(N4CCCC4)ccc3-c3sc4c(c3C(=O)O)CC(C)(C)CC4)cc2)NC(=O)OC2COC3(C)OCCC23)cc1 (stereo not drawn) [Compound I-539]
rat_CLt [1]: 0.156 mL/min/kg | pIC50 (HIV-1 PR): 8.54

COc1ccc(S(=O)(=O)N(CC(C)C)CC(O)C(Cc2ccc(NCC3CCCC3c3sc4c(c3C(=O)O)CC(C)(C)CC4)cc2)NC(=O)OC2COC3OCCC23)cc1 (stereo not drawn) [Compound I-877]
rat_CLt [1]: 2.31 mL/min/kg | pIC50 (HIV-1 PR): 8.67

COc1ccc(S(=O)(=O)N(CC2CCC2)CC(O)C(Cc2ccc(NCc3ccccc3C(=O)Nc3sc4c(c3C(=O)O)CC(C)(C)CC4)cc2)NC(=O)OC2COC3OCCC23)cc1 (stereo not drawn) [Compound I-860]
rat_CLt [1]: 0.0981 mL/min/kg | pIC50 (HIV-1 PR): 8.45

CC1(C)CCc2sc(-c3ccccc3CNc3ccc(CC(NC(=O)OC4COC5(C)OCCC45)C(O)CN(CC4CCCC4)S(=O)(=O)c4ccc5ncsc5c4)cc3)c(C(=O)O)c2C1 (stereo not drawn) [Compound I-513]
rat_CLt [1]: 3.23 mL/min/kg | pIC50 (HIV-1 PR): 8.75

COc1ccc(S(=O)(=O)N(CC(C)C)CC(O)C(Cc2ccc(NCc3cocc3-c3sc4c(c3C(=O)O)CC(C)(C)CC4)cc2)NC(=O)OC2COC3(C)OCCC23)cc1 (stereo not drawn) [Compound I-528]
rat_CLt [1]: 4.05 mL/min/kg | pIC50 (HIV-1 PR): 8.63

COc1ccc(S(=O)(=O)N(CC(C)C)CC(O)C(Cc2ccc(NCc3cccc(C)c3-c3sc4c(c3C(=O)O)CC(C)(C)CC4)cc2)NC(=O)OC2COC3(C)OCCC23)cc1 (stereo not drawn) [Compound I-598]
rat_CLt [1]: 0.532 mL/min/kg | pIC50 (HIV-1 PR): 8.67

COc1ccc(S(=O)(=O)N(CC(C)C)CC(O)C(Cc2ccc(N(C)Cc3ccc(-c4sc5c(c4C(=O)O)CC(C)(C)CC5)cc3)cc2)NC(=O)OC2COC3(C)OCCC23)cc1 (stereo not drawn) [Compound I-450]
rat_CLt [1]: 3.7 mL/min/kg | pIC50 (HIV-1 PR): 8.57

COc1ccc(S(=O)(=O)N(CC(C)C)CC(O)C(Cc2ccc(NCC3CCCCC3C(=O)Nc3sc4c(c3C(=O)O)CC(C)(C)CC4)cc2)NC(=O)OC2COC3(C)OCCC23)cc1 (stereo not drawn) [Compound I-614]
rat_CLt [1]: 0.146 mL/min/kg | pIC50 (HIV-1 PR): 8.54

COc1ccc(S(=O)(=O)N(CC(C)C)CC(O)C(Cc2ccc(NCc3ncccc3C(=O)Nc3sc4c(c3C(=O)O)CC(C)(C)CC4)cc2)NC(=O)OC2COC3OCCC23)cc1 (stereo not drawn) [Compound I-882]
rat_CLt [1]: 0.26 mL/min/kg | pIC50 (HIV-1 PR): 8.64

CC1(C)CCc2sc(NC(=O)c3ccccc3CNc3ccc(CC(NC(=O)OC4COC5(C)OCCC45)C(O)CN(CC4CCCC4)S(=O)(=O)c4ccc5ncsc5c4)cc3)c(C(=O)O)c2C1 (stereo not drawn) [Compound I-601]
rat_CLt [1]: 0.164 mL/min/kg | pIC50 (HIV-1 PR): 8.49

COc1ccc(S(=O)(=O)N(CC(C)C)CC(O)C(Cc2ccc(NCc3ccc(C)c(-c4sc5c(c4C(=O)O)CC(C)(C)CC5)c3)cc2)NC(=O)OC2COC3(C)OCCC23)cc1 (stereo not drawn) [Compound I-532]
rat_CLt [1]: 0.551 mL/min/kg | pIC50 (HIV-1 PR): 8.38

COc1ccc(S(=O)(=O)N(CC(C)C)CC(O)C(Cc2ccc(NCc3cc(N4CCOCC4)ccc3-c3sc4c(c3C(=O)O)CC(C)(C)CC4)cc2)NC(=O)OC2COC3(C)OCCC23)cc1 (stereo not drawn) [Compound I-679]
rat_CLt [1]: 1.65 mL/min/kg | pIC50 (HIV-1 PR): 8.55

COc1ccc(S(=O)(=O)N(CC(C)C)CC(O)C(Cc2ccc(NCC3CCCC3c3sc4c(c3C(=O)O)CC(C)(C)CC4)cc2)NC(=O)OC2COC3(C)OCCC23)cc1 (stereo not drawn) [Compound I-409]
rat_CLt [1]: 0.873 mL/min/kg | pIC50 (HIV-1 PR): 8.61

COc1ccc(S(=O)(=O)N(CC(C)C)CC(O)C(Cc2ccc(NCC3COCCC3c3sc4c(c3C(=O)O)CC(C)(C)CC4)cc2)NC(=O)OC2COC3(C)OCCC23)cc1 (stereo not drawn) [Compound I-399]
rat_CLt [1]: 0.487 mL/min/kg | pIC50 (HIV-1 PR): 8.71

CC1(C)CCc2sc(NC(=O)c3ccccc3CNc3ccc(CC(NC(=O)OC4COC5OCCC45)C(O)CN(CC4CCC4)S(=O)(=O)c4ccc5ncsc5c4)cc3)c(C(=O)O)c2C1 (stereo not drawn) [Compound I-862]
rat_CLt [1]: 0.14 mL/min/kg | pIC50 (HIV-1 PR): 8.58

COc1ccc(S(=O)(=O)N(CC(C)C)CC(O)C(Cc2ccc(NCc3ccc(N4CCCC4=O)cc3-c3sc4c(c3C(=O)O)CC(C)(C)CC4)cc2)NC(=O)OC2COC3(C)OCCC23)cc1 (stereo not drawn) [Compound I-742]
rat_CLt [1]: 5.03 mL/min/kg | pIC50 (HIV-1 PR): 8.68

COc1ccc(S(=O)(=O)N(CC(C)C)CC(O)C(Cc2ccc(NCc3cc4c(cc3-c3sc5c(c3C(=O)O)CC(C)(C)CC5)OCO4)cc2)NC(=O)OC2COC3(C)OCCC23)cc1 (stereo not drawn) [Compound I-552]
rat_CLt [1]: 0.985 mL/min/kg | pIC50 (HIV-1 PR): 8.85

COc1ccc(S(=O)(=O)N(CC(C)C)CC(O)C(Cc2ccc(NCc3cccc(C(=O)Nc4sc5c(c4C(=O)O)CC(C)(C)CC5)c3)cc2)NC(=O)OC2COC3(C)OCCC23)cc1 (stereo not drawn) [Compound I-436]
rat_CLt [1]: 1.72 mL/min/kg | pIC50 (HIV-1 PR): 8.50

COc1ccc(S(=O)(=O)N(CC(C)C)CC(O)C(Cc2ccc(NCc3ccc(F)c(-c4sc5c(c4C(=O)O)CC(C)(C)CC5)c3)cc2)NC(=O)OC2COC3(C)OCCC23)cc1 (stereo not drawn) [Compound I-287]
rat_CLt [1]: 2.73 mL/min/kg | pIC50 (HIV-1 PR): 8.69

COc1ccc(S(=O)(=O)N(CC(C)C)CC(O)C(Cc2ccc(N(CCCc3sc4c(c3C(=O)O)CC(C)(C)CC4)Cc3ccccc3)cc2)NC(=O)OC2COC3(C)OCCC23)cc1 (stereo not drawn) [Compound I-371]
rat_CLt [1]: 4.69 mL/min/kg | pIC50 (HIV-1 PR): 7.98

CC(C)CN(CC(O)C(Cc1ccc(NCc2ccccc2-c2sc3c(c2C(=O)O)CC(C)(C)CC3)cc1)NC(=O)OC1COC2(C)OCCC12)S(=O)(=O)c1ccc2ncsc2c1 (stereo not drawn) [Compound I-467]
rat_CLt [1]: 2.36 mL/min/kg | pIC50 (HIV-1 PR): 8.62

COc1ccc(S(=O)(=O)N(CC2CCCC2)CC(O)C(Cc2ccc(NCc3ccccc3C(=O)Nc3sc4c(c3C(=O)O)CC(C)(C)CC4)cc2)NC(=O)OC2COC3OCCC23)cc1 (stereo not drawn) [Compound I-857]
rat_CLt [1]: 0.132 mL/min/kg | pIC50 (HIV-1 PR): 8.47

COc1ccc(S(=O)(=O)N(CC(C)C)CC(O)C(Cc2ccc(NCc3cc(F)ccc3C(=O)Nc3sc4c(c3C(=O)O)CC(C)(C)CC4)cc2)NC(=O)OC2COC3(C)OCCC23)cc1 (stereo not drawn) [Compound I-625]
rat_CLt [1]: 0.0688 mL/min/kg | pIC50 (HIV-1 PR): 8.29

COc1ccc(S(=O)(=O)N(CC(C)C)CC(O)C(Cc2ccc(NCc3ccc(Cl)cc3-c3sc4c(c3C(=O)O)CC(C)(C)CC4)cc2)NC(=O)OC2COC3(C)OCCC23)cc1 (stereo not drawn) [Compound I-563]
rat_CLt [1]: 0.883 mL/min/kg | pIC50 (HIV-1 PR): 8.67

COc1ccc(S(=O)(=O)N(CC(C)C)CC(O)C(Cc2ccc(NCC3=C(C(=O)Nc4sc5c(c4C(=O)O)CC(C)(C)CC5)CCC3)cc2)NC(=O)OC2COC3(C)OCCC23)cc1 (stereo not drawn) [Compound I-589]
rat_CLt [1]: 0.311 mL/min/kg | pIC50 (HIV-1 PR): 8.46

COc1ccc(S(=O)(=O)N(CC(C)C)CC(O)C(Cc2ccc(N3CCC(Oc4cc(C(F)(F)F)ccc4-c4sc5c(c4C(=O)O)CC(C)(C)CC5)C3)cc2)NC(=O)OC2COC3(C)OCCC23)cc1 (stereo not drawn) [Compound I-579]
rat_CLt [1]: 1.66 mL/min/kg | pIC50 (HIV-1 PR): 8.36

COc1ccc(S(=O)(=O)N(CC(C)C)CC(O)C(Cc2ccc(NCc3cc(OC)ccc3-c3sc4c(c3C(=O)O)CC(C)(C)CC4)cc2)NC(=O)OC2COC3(C)OCCC23)cc1 (stereo not drawn) [Compound I-566]
rat_CLt [1]: 0.727 mL/min/kg | pIC50 (HIV-1 PR): 8.79

COc1ccc(S(=O)(=O)N(CC(C)C)CC(O)C(Cc2ccc(NCc3ccc(-c4ccccc4-c4sc5c(c4C(=O)O)CC(C)(C)CC5)cc3)cc2)NC(=O)OC2COC3(C)OCCC23)cc1 (stereo not drawn) [Compound I-530]
rat_CLt [1]: 1.57 mL/min/kg | pIC50 (HIV-1 PR): 8.08

COc1ccc(S(=O)(=O)N(CC(C)C)CC(O)C(Cc2ccc(NCc3cc4c(cc3-c3sc5c(c3C(=O)O)CC(C)(C)CC5)OCCO4)cc2)NC(=O)OC2COC3(C)OCCC23)cc1 (stereo not drawn) [Compound I-651]
rat_CLt [1]: 0.536 mL/min/kg | pIC50 (HIV-1 PR): 8.70

COc1ccc(S(=O)(=O)N(CC(C)C)CC(O)C(Cc2ccc(N(C)Cc3ccc(-c4sc5c(c4C(=O)O)CC(C)(C)CC5)cn3)cc2)NC(=O)OC2COC3(C)OCCC23)cc1 (stereo not drawn) [Compound I-449]
rat_CLt [1]: 11.1 mL/min/kg | pIC50 (HIV-1 PR): 8.66

COc1ccc(S(=O)(=O)N(CC(C)C)CC(O)C(Cc2ccc(NCc3cc(N(C)C)ccc3-c3sc4c(c3C(=O)O)CC(C)(C)CC4)cc2)NC(=O)OC2COC3(C)OCCC23)cc1 (stereo not drawn) [Compound I-455]
rat_CLt [1]: 0.236 mL/min/kg | pIC50 (HIV-1 PR): 8.62

COc1ccc(S(=O)(=O)N(CC(C)C)CC(O)C(Cc2ccc(NCc3ccc4nc(-c5sc6c(c5C(=O)O)CC(C)(C)CC6)sc4c3)cc2)NC(=O)OC2COC3(C)OCCC23)cc1 (stereo not drawn) [Compound I-487]
rat_CLt [1]: 3.16 mL/min/kg | pIC50 (HIV-1 PR): 8.52
